Test results from publication PMC3407035 (Journal of enzyme inhibition and medicinal chemistry, 2011).

Columns and labels:
[1] = target: T1, Human GGT1 (gamma-glutamyl transpeptidase, GGT) (Homo sapiens, UniProt P19440); experiment: pNA release at […] nm, hydrolysis; type: biochemical; conditions: read-out: D-GpNA Minus acceptor; no acceptor, pH 7.4, 37 °C
[2] = target: T1, Human GGT1 (gamma-glutamyl transpeptidase, GGT); experiment: pNA release at […] nm, transpeptidation; type: biochemical

T1 sequence (P19440 27-380 limits assumed): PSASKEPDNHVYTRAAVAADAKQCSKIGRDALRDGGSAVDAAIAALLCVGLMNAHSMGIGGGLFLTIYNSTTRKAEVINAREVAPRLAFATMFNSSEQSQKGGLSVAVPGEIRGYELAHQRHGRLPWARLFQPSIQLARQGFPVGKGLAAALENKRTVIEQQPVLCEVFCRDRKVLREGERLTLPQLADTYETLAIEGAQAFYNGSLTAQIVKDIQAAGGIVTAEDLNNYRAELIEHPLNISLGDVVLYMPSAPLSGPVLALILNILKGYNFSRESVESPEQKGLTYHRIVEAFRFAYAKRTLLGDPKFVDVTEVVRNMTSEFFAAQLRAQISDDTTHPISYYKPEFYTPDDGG
T1 sequence (P19440 381-569 limits assumed): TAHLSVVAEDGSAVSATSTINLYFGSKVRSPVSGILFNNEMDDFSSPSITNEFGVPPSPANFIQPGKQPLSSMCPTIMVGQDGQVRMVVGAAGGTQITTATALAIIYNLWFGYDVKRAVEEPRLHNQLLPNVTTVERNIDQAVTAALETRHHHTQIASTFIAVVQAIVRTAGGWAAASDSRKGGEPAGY

Structure (SMILES) | Km [1] [µM] | Ki [2] [µM]
N[C@H](CCC(=O)Nc1ccc([N+](=O)[O-])cc1)C(=O)O [D-GpNA] | 160 ± 20 | –
COc1ccc(Cc2nnc(NS(=O)(=O)c3ccc(Cl)cc3)s2)cc1 [compound 10, Compound 10] | – | 13.4 ± 0.8
Cc1ccc(Cc2nnc(NS(=O)(=O)c3ccc([N+](=O)[O-])cc3)s2)cc1 [compound 17, Compound 17] | – | 56.9 ± 8.3

The remaining molecules from weak to strong by Ki [2], led by results:

Km [1] [µM] | Ki [2] [µM] | Structure (SMILES)
– | 45.7 ± 3.4 | COc1ccc(Cc2nnc(NS(=O)(=O)c3cccc4ccccc34)s2)cc1 [compound 6, Compound 6]
– | 34.3 ± 0.9 | Cc1cccc(Cc2nnc(NS(=O)(=O)c3ccc([N+](=O)[O-])cc3)s2)c1 [compound 18, Compound 18]
